Data from patent US20250382346A1, “NEURONAL PROMOTERS AND USES THEREOF” (priority 2023, published 2025).

Biological target: T1, hM3Dq (Homo sapiens, UniProt P20309, A239G/Y149C)
T1 construct: expressed in transfected cells; host or cells: neurons of C57BL/6J mice or of macaques, transduced in vivo by nigral AAV8R12-G88P3-HA-hM3Dq
Assay: Striatal slice whole-cell recordings of retrogradely labeled D1-MSNs, hM3Dq
Type: cell-based, mice
Details: AAV8R12-G88P3-HA-hM3Dq-2A-EYFP; CNO 10 μM; basal firing rate and resting membrane potential unaffected
Source text: Mice from different groups were anesthetized with […] isoflurane, and then decapitated. The brain was quickly extracted and placed in ice-cold N-methyl-D-glucamine (NMDG) cutting solution containing (in mM): 92 NMDG, 2.5 KCl, 25 NaHCO3, 1.25 NaH2PO4, 4.5 D-Glucose, 20 HEPES, 5 L-ascorbic acid, 3 Na-pyruvate, 2 Thiourea, 10 MgSO4, 0.5 CaCl2). The pH was adjusted to 7.2±0.1 using HCl and the osmolarity was adjusted to 305±5 mosmol/L using NMDG. The solution was bubbled with 95% O2/5% CO2 prior to use. Coronal striatum slices were cut in 250-[…]m thickness with a vibratome slicer (Leica, VT1200 S), and then incubated in artificial cerebrospinal fluid (aCSF) saturated with 95% O2/5% CO2 for at least 45 min at 37° C. before recording. The aCSF contains (in mM) 125 NaCl, 1.25 KCl, 25 NaHCO3, 1.25 KH2PO4, 25 D-Glucose, 2 CaCl2) and 1 MgCl2, supplemented with 2 mM Na-pyruvate, 3 mM Myo-inositol and 0.4 mM L-ascorbic acid.
The acute striatum slice was transferred to the recording chamber with a constant perfusion of oxygenized aCSF at the rate of 3 ml/min. Neurons were visualized using an upright microscope (Olympus, BX-51) with a 40× water immersion objective at room temperature (˜25° C.). […] Neurons were quickly visualized under fluorescence microscope and then patch clamp were achieved under infrared light illumination and CCD camera. […]

T1 sequence (P20309 whole entry Y149C/A239G): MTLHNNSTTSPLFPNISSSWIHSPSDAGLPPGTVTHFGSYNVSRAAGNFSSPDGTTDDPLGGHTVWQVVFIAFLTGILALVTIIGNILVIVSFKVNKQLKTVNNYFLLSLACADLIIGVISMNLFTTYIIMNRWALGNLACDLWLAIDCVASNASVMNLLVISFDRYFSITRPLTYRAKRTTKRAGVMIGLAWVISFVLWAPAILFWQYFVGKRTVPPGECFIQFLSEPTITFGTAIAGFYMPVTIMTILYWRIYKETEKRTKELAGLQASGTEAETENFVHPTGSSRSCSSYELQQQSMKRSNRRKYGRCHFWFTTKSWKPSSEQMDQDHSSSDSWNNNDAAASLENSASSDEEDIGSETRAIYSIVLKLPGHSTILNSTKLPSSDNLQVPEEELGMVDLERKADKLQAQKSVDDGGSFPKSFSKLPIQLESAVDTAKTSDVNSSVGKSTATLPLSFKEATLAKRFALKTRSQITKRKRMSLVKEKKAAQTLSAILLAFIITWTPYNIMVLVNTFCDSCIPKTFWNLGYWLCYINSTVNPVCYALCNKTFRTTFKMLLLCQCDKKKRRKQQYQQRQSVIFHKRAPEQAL

C[N+]1([O-])CCN(C2=Nc3cc(Cl)ccc3Nc3ccccc32)CC1 [CNO, Clozapine-N-oxide]
excitability of transduced MSNs upon CNO: augmentation of excitability
